The values below come from patent US6596694B2, “Caloporoside derivatives, methods of their preparation and use” (Aventis Pharma Deutschland GmbH, priority 2001, dated 2003).

cyclin D1/CDK4, sequence (P11802 whole entry, species assumed): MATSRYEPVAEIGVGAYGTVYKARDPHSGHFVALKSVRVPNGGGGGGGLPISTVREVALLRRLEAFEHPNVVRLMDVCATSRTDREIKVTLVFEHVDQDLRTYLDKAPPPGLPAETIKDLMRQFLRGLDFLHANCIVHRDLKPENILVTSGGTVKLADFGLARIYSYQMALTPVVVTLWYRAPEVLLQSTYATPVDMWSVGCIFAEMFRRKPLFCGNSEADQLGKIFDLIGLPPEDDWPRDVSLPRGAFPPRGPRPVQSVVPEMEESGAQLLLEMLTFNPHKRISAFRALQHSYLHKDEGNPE
cyclin D1/CDK4, sequence (P24385 whole entry partner, species assumed): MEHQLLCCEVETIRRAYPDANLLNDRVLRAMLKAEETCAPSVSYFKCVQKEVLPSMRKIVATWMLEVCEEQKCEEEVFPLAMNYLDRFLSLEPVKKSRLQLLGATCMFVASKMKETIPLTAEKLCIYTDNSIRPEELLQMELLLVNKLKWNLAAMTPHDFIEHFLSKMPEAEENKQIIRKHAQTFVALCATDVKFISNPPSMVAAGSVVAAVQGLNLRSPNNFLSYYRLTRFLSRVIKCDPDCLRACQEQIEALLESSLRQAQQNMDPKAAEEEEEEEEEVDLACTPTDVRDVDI

For the assay, the target named is cyclin D1/CDK4 (Homo sapiens, UniProt P11802). Kind of assay: Bioassay for CDK-4 inhibitors (phosphorylation of biotinylated peptide substrate, 33P-γ-ATP, flash plates). The class given is biochemical. To be noted: 2 μM ATP, 2 hours at 37° C., 10 concentrations; read-out: IC50 (concentration which deactivates 50% of CDK-4). As for the experimental part:
In order to detect the inhibitors of cyclin-dependent kinases (CDKs), use is made of a test in which the phosphorylation rate by the cyclin-dependent kinases of a specific peptide substrate is measured. The cyclin-dependent kinases are activated when the kinase binds to its respective cyclin. A [γ-P]-phosphate is transferred from [γ-P]-ATP to the peptide substrate by the activated CDK. The test is carried out in 96-well microtiter plates. The radioactivity of the [γ-P]-phosphate on the substrate is measured.
IC50 values for the caloporoside derivatives are shown in Table 1; this is the concentration which deactivates 50% of CDK-4.
For the determination of the IC50 value, stock solutions of the caloporoside derivatives according to the invention were prepared in a concentration of 10 mM. […] flash plates were coated with 50 μl (50 μg/well) of biotinylated peptide substrate at room temperature, incubated for 2 hours, and subsequently washed 3× with PBS buffer. For the reaction, 30 μl of a buffer-diluted solution of the caloporoside derivatives and 20 μl of a pre-mixed ATP/cyclin D1/CDK4 solution (final concentration: 1 μCl of 33P-γ-ATP, 2 μM of ATP and 1 μg of enzyme mixture) were pipetted onto the plates. After a reaction time of 2 hours at 37° C., the plates were washed 3× with 80 μl of 3% phosphoric acid. Radioactivity was subsequently measured for 30 seconds in a MicroBeta counter. The percentage inhibition was determined with the aid of mathematical equations. For the determination of IC50 values, 10 different concentrations of the compounds according to the invention in a freshly diluted DMSO solution were tested.
Take `CC(=O)Oc1cccc(CCCCCCCCCCCCCCCC(C)OC(=O)C(O)C(O)C(O)C(CO)OC2OC(CO)C(O)C(O)C2O)c1C(=O)O` (centres unmarked) [Caloporoside B]: the IC50 worked out at 1500 nM.

As for `CC(=O)Oc1cccc(CCCCCCCCCCCCCCCC(C)OC(=O)C(O)C(O)C(O)C(COC(=O)CC(=O)O)OC2OC(CO)C(O)C(O)C2OC(C)=O)c1C(=O)O` (centres unmarked) [Caloporoside C], the IC50 is 3100 nM.

With `CC(=O)OC1C(OC(COC(=O)CC(=O)O)C(O)C(O)C(O)C(=O)OC(C)CCCCCCCCCCCCCCCc2cccc(O)c2C(=O)O)OC(CO)C(O)C1O` (centres unmarked) [Caloporoside D], the IC50 came out at 1800 nM.

As to `CC(=O)OC1C(O)C(CO)OC(OC(COC(=O)CC(=O)O)C(O)C(O)C(O)C(=O)OC(C)CCCCCCCCCCCCCCCc2cccc(O)c2C(=O)O)C1O` (centres unmarked) [Caloporoside E], the IC50 was determined as 1800 nM.

As to `CC(=O)OC1C(OC(CO)C(O)C(O)C(O)C(=O)OC(C)CCCCCCCCCCCCCCCc2cccc(O)c2C(=O)O)OC(CO)C(O)C1O` (centres unmarked) [Caloporoside F], the IC50 was 1500 nM.
